Assay results taken from patent US20250098679A1, “HERBICIDAL PYRIDONE DERIVATIVES” (SYNGENTA CROP PROTECTION AG, priority 2021, published 2025).

Key:
Type in all cases: in vivo
Conditions in all cases: evaluated after 13 days
[1] = system: Echinochloa crus-galli (ECHCG); experiment: Post-emergence Test, Echinochloa crus-galli (ECHCG); design: key to percentage damage caused to the plant, ECHCG (five-point scale): 5=81-100%, 4=61-80%, 3=41-60%, 2=21-40%, 1=0-20% damage
How it was run: (§1)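 Application was a spray of acetone/water (50:50) with 0.5% Tween 20 onto pots of test species sown in standard soil. Unless otherwise stated, the rate was 1000 g/ha. After 13 days under glasshouse conditions (24/16 °C, 65% humidity), injury was scored from 1 (0-20%) to 5 (81-100%).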

[2] = system: Amaranthus palmeri (AMAPA); experiment: Post-emergence Test, Amaranthus palmeri (AMAPA); design: key: 5=81-100%, 4=61-80%, 3=41-60%, 2=21-40%, 1=0-20% damage
How it was run: as §1

[3] = system: Echinochloa crus-galli (ECHCG); experiment: Pre-emergence Test, Echinochloa crus-galli (ECHCG)
[4] = system: Amaranthus palmeri (AMAPA); experiment: Pre-emergence Test, Amaranthus palmeri (AMAPA)
[5] = system: Amaranthus retoflexus (AMARE); experiment: Pre-emergence Test, Amaranthus retoflexus (AMARE)
Setaria faberi (SETFA) [6] = experiment: Post-emergence Test, Setaria faberi (SETFA); design: key to percentage damage caused to the plant, SETFA (five-point scale): 5=81-100%, 4=61-80%, 3=41-60%, 2=21-40%, 1=0-20% damage
How it was run: as §1

[7] = system: Ipomoea hederacea (IPOHE); experiment: Pre-emergence Test, Ipomoea hederacea (IPOHE)
[8] = system: Ipomoea hederacea (IPOHE); experiment: Post-emergence Test, Ipomoea hederacea (IPOHE); design: key to percentage damage caused to the plant, IPOHE (five-point scale): 5=81-100%, 4=61-80%, 3=41-60%, 2=21-40%, 1=0-20% damage
How it was run: as §1

[9] = system: Amaranthus retoflexus (AMARE); experiment: Post-emergence Test, Amaranthus retoflexus (AMARE); design: key to percentage damage caused to the plant, AMARE (five-point scale): 5=81-100%, 4=61-80%, 3=41-60%, 2=21-40%, 1=0-20% damage
How it was run: as §1

Zea mays (ZEAMX) [10] = experiment: Pre-emergence Test, Zea mays (ZEAMX)
Zea mays (ZEAMX) [11] = experiment: Post-emergence Test, Zea mays (ZEAMX); design: key to percentage damage caused to the plant, ZEAMX (five-point scale): 5=81-100%, 4=61-80%, 3=41-60%, 2=21-40%, 1=0-20% damage
How it was run: as §1

Setaria faberi (SETFA) [12] = experiment: Pre-emergence Test, Setaria faberi (SETFA)

| Structure (SMILES) | percentage damage caused to the plant, ECHCG (five-point scale) ([1]; 250 g/Ha) | percentage damage caused to the plant, AMAPA (five-point scale) ([2]; 250 g/Ha) | Pre-emergence Test ECHCG, percentage damage caused to the plant (five-point scale) ([3]; 250 g/Ha (*)) | Pre-emergence Test AMAPA, percentage damage caused to the plant (five-point scale) ([4]; 250 g/Ha (*)) | percentage damage caused to the plant, SETFA (five-point scale) (Setaria faberi (SETFA) [6]; 250 g/Ha) | percentage damage caused to the plant, IPOHE (five-point scale) ([8]; 250 g/Ha) | percentage damage caused to the plant, AMARE (five-point scale) ([9]; 250 g/Ha) | percentage damage caused to the plant, ZEAMX (five-point scale) (Zea mays (ZEAMX) [11]; 250 g/Ha) | percentage damage caused to the plant, ECHCG (five-point scale) ([1]; 1000 g/ha) | percentage damage caused to the plant, AMAPA (five-point scale) ([2]; 1000 g/ha) | Pre-emergence Test ECHCG, percentage damage caused to the plant (five-point scale) ([3]; 1000 g/ha) | Pre-emergence Test AMAPA, percentage damage caused to the plant (five-point scale) ([4]; 1000 g/ha) | Pre-emergence Test AMARE, percentage damage caused to the plant (five-point scale) ([5]; 1000 g/ha) | percentage damage caused to the plant, SETFA (five-point scale) (Setaria faberi (SETFA) [6]; 1000 g/ha) | Pre-emergence Test IPOHE, percentage damage caused to the plant (five-point scale) ([7]; 1000 g/ha) | percentage damage caused to the plant, IPOHE (five-point scale) ([8]; 1000 g/ha) | percentage damage caused to the plant, AMARE (five-point scale) ([9]; 1000 g/ha) | Pre-emergence Test ZEAMX, percentage damage caused to the plant (five-point scale) (Zea mays (ZEAMX) [10]; 1000 g/ha) | percentage damage caused to the plant, ZEAMX (five-point scale) (Zea mays (ZEAMX) [11]; 1000 g/ha) | Pre-emergence Test SETFA, percentage damage caused to the plant (five-point scale) (Setaria faberi (SETFA) [12]; 1000 g/ha) | other results |
| --- | --- | --- | --- | --- | --- | --- | --- | --- | --- | --- | --- | --- | --- | --- | --- | --- | --- | --- | --- | --- | --- |
| CCn1c(Cn2ncc(Cl)c2C2CC2)cc(=O)c(C(=O)O)c1-c1ccc(Cl)c(Cl)c1 [Compound 93, 6-[(4-chloro-5-cyclopropyl-pyrazol-1-yl)methyl]-2-(3,4-dichlorophenyl)-1-ethyl-4-oxo-pyridine-3-carboxylic acid] | 2 (2=21-40%) | 1 (1=0-20%) | 0 | 2 (2=21-40%) | 1 (1=0-20%) | 1 (1=0-20%) | 1 (1=0-20%) | 1 (1=0-20%) | – | – | – | – | – | – | – | – | – | – | – | – | Pre-emergence Test AMARE, percentage damage caused to the plant (five-point scale) ([5]; 250 g/Ha (*)): 1 (1=0-20%); Pre-emergence Test IPOHE, percentage damage caused to the plant (five-point scale) ([7]; 250 g/Ha (*)): 0; Pre-emergence Test ZEAMX, percentage damage caused to the plant (five-point scale) (Zea mays (ZEAMX) [10]; 250 g/Ha (*)): 0; Pre-emergence Test SETFA, percentage damage caused to the plant (five-point scale) (Setaria faberi (SETFA) [12]; 250 g/Ha (*)): 0 |
| CCn1c(Cn2ncc3cc(Cl)ccc32)cc(=O)c(C(=O)O)c1-c1ccc(Cl)c(Cl)c1 [Compound 98, 6-[(5-chloroindazol-1-yl)methyl]-2-(3,4-dichlorophenyl)-1-ethyl-4-oxo-pyridine-3-carboxylic acid] | 2 (2=21-40%) | 0 | 0 | 1 (1=0-20%) | 1 (1=0-20%) | 1 (1=0-20%) | 1 (1=0-20%) | 1 (1=0-20%) | – | – | – | – | – | – | – | – | – | – | – | – | Pre-emergence Test AMARE, percentage damage caused to the plant (five-point scale) ([5]; 250 g/Ha (*)): 0; Pre-emergence Test IPOHE, percentage damage caused to the plant (five-point scale) ([7]; 250 g/Ha (*)): 0; Pre-emergence Test ZEAMX, percentage damage caused to the plant (five-point scale) (Zea mays (ZEAMX) [10]; 250 g/Ha (*)): 0; Pre-emergence Test SETFA, percentage damage caused to the plant (five-point scale) (Setaria faberi (SETFA) [12]; 250 g/Ha (*)): 0 |
| CCn1c(Cn2nc(C(F)(F)F)cc2OCCOC)cc(=O)c(C(=O)O)c1-c1ccc(Cl)c(Cl)c1 [Compound 144, 2-(3,4-dichlorophenyl)-1-ethyl-6-[[5-(2-methoxyethoxy)-3-(trifluoromethyl)pyrazol-1-yl]methyl]-4-oxo-pyridine-3-carboxylic acid] | 2 (2=21-40%) | 0 | – | – | 2 (2=21-40%) | 1 (1=0-20%) | 1 (1=0-20%) | 0 | 3 (3=41-60%) | 1 (1=0-20%) | 1 (1=0-20%) | 0 | 0 | 3 (3=41-60%) | 1 (1=0-20%) | 2 (2=21-40%) | 2 (2=21-40%) | 0 | 3 (3=41-60%) | 5 (5=81-100%) | – |
| CCn1c(Cn2cc(C(=O)OC)cn2)cc(=O)c(C(=O)O)c1-c1ccc(Cl)c(Cl)c1 [Compound 40, 2-(3,4-dichlorophenyl)-1-ethyl-6-[(4-methoxycarbonylpyrazol-1-yl)methyl]-4-oxo-pyridine-3-carboxylic acid] | 1 (1=0-20%) | 0 | – | – | 0 | 0 | 1 (1=0-20%) | 0 | 0 | 1 (1=0-20%) | 0 | 3 (3=41-60%) | 1 (1=0-20%) | 1 (1=0-20%) | 2 (2=21-40%) | 2 (2=21-40%) | 0 | 0 | 2 (2=21-40%) | 1 (1=0-20%) | – |
| CCn1c(Cn2ccc(OC)n2)cc(=O)c(C(=O)O)c1-c1ccc(Cl)c(Cl)c1 [Compound 38, 2-(3,4-dichlorophenyl)-1-ethyl-6-[(3-methoxypyrazol-1-yl)methyl]-4-oxo-pyridine-3-carboxylic acid] | 3 (3=41-60%) | 1 (1=0-20%) | – | – | 4 (4=61-80%) | 4 (4=61-80%) | 2 (2=21-40%) | 2 (2=21-40%) | 4 (4=61-80%) | 4 (4=61-80%) | 5 (5=81-100%) | 3 (3=41-60%) | 2 (2=21-40%) | 4 (4=61-80%) | 4 (4=61-80%) | 3 (3=41-60%) | 4 (4=61-80%) | 5 (5=81-100%) | 4 (4=61-80%) | 5 (5=81-100%) | – |
| CCn1c(Cn2nccn2)cc(=O)c(C(=O)O)c1-c1ccc(Cl)c(Cl)c1 [Compound 48, 2-(3,4-dichlorophenyl)-1-ethyl-4-oxo-6-(triazol-2-ylmethyl)pyridine-3-carboxylic acid] | 3 (3=41-60%) | 1 (1=0-20%) | – | – | 4 (4=61-80%) | 4 (4=61-80%) | 1 (1=0-20%) | 0 | 5 (5=81-100%) | 3 (3=41-60%) | 5 (5=81-100%) | 1 (1=0-20%) | 0 | 4 (4=61-80%) | 0 | 2 (2=21-40%) | 0 | 0 | 3 (3=41-60%) | 5 (5=81-100%) | – |
